# Data taken from the supplement of paper PMC6045584.
# Tests used:
# Assay in all cases: area under dose-response curve of surviving fraction (unscaled, Aref=0) (surviving fraction x log10(nM)); higher = more resistant
# Conditions in all cases: exposure time: 5 days; dose range 0.5-1000 nM
# [1] = compound: CCn1c(C(=O)N(C2CC2)C2CC2)cc2c3c(ncn3C)c(Nc3cc(C)n(C)n3)nc21
# Outline: (§1)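 Tumour cell lines in 384-well plates were exposed to eight inhibitor concentrations, from 0.5 to 1000 nM, for five days, and viability was read by CellTiter-Glo luminescence in three screens per line. Signals were normalised to DMSO-only wells, and 3-parameter logistic regression in the drc R package fitted dose-response survival curves to the surviving fractions. Area under the curve is given as the unscaled activity area. That area is taken over log10 dose with Aref = 0.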
# ABIRATERONE = compound: C[C@]12CC[C@H](O)CC1=CC[C@@H]1[C@@H]2CC[C@]2(C)C(c3cccnc3)=CC[C@@H]12 [ABIRATERONE]
# Outline: as §1
# SORAFENIB = compound: CNC(=O)c1cc(Oc2ccc(NC(=O)Nc3ccc(Cl)c(C(F)(F)F)c3)cc2)ccn1 [SORAFENIB]
# Outline: as §1
# DASATINIB = compound: Cc1nc(Nc2ncc(C(=O)Nc3c(C)cccc3Cl)s2)cc(N2CCN(CCO)CC2)n1 [DASATINIB]
# Outline: as §1
# [2] = compound: CNCc1ccc(-c2[nH]c3cc(F)cc4c3c2CCNC4=O)cc1
# Outline: as §1
# [3] = compound: COc1cc2ncnc(Nc3ccc(F)c(Cl)c3)c2cc1NC(=O)/C=C/CN1CCCCC1
# Outline: as §1
# MLN-4924 = compound: NS(=O)(=O)OC[C@@H]1C[C@@H](n2ccc3c(N[C@H]4CCc5ccccc54)ncnc32)C[C@@H]1O [MLN-4924]
# Outline: as §1
# TEMOZOLOMIDE = compound: Cn1nnc2c(C(N)=O)ncn2c1=O [TEMOZOLOMIDE]
# Outline: as §1
# CRIZOTINIB = compound: C[C@@H](Oc1cc(-c2cnn(C3CCNCC3)c2)cnc1N)c1c(Cl)ccc(F)c1Cl [CRIZOTINIB]
# Outline: as §1
# FORETINIB = compound: COc1cc2c(Oc3ccc(NC(=O)C4(C(=O)Nc5ccc(F)cc5)CC4)cc3F)ccnc2cc1OCCCN1CCOCC1 [FORETINIB]
# Outline: as §1
# SOTRASTAURIN/AEB071 = compound: CN1CCN(c2nc(C3=C(c4c[nH]c5ccccc45)C(=O)NC3=O)c3ccccc3n2)CC1 [SOTRASTAURIN/AEB071]
# Outline: as §1
# XAV-939 = compound: Oc1nc(-c2ccc(C(F)(F)F)cc2)nc2c1CSCC2 [XAV-939]
# Outline: as §1
# [4] = compound: C[C@@H](Oc1cc(-c2cnn(C3CCNCC3)c2)cnc1N)c1c(Cl)ccc(F)c1Cl
# Outline: as §1
# OLAPARIB = compound: O=C(c1cc(Cc2n[nH]c(=O)c3ccccc23)ccc1F)N1CCN(C(=O)C2CC2)CC1 [OLAPARIB]
# Outline: as §1
Test System,area under dose-response curve [1],area under dose-response curve (ABIRATERONE),area under dose-response curve (SORAFENIB),area under dose-response curve (DASATINIB),area under dose-response curve [2],area under dose-response curve [3],area under dose-response curve (MLN-4924),area under dose-response curve (TEMOZOLOMIDE),area under dose-response curve (CRIZOTINIB),area under dose-response curve (FORETINIB),area under dose-response curve (SOTRASTAURIN/AEB071),area under dose-response curve (XAV-939),area under dose-response curve [4],area under dose-response curve (OLAPARIB)
93VU HEADNECK,3.21,3.9,3.6,1.68,3.13,1.8,2.42,3.5,3.62,3.15,3.06,3.51,3.15,–
143B BONE,3.44,3.51,3.46,–,–,3.27,–,–,–,–,–,–,3.2,3.36
ASKA SYNOVIAL,3.49,3.92,3.67,3.09,2.86,–,2.57,3.76,2.02,2.97,3.57,3.73,1.91,–
BT20 BREAST,3.56,3.73,–,2.46,3.01,3.27,–,3.53,–,2.97,3.14,3.66,2.71,2.92
BT549 BREAST,3.29,–,3.65,1.74,3,3.07,2.41,3.71,3.2,3.09,3.27,–,3.16,2.76
C33A CERVIX,3.14,–,3.69,1.29,3.29,2.14,2.13,3.18,3.26,3.09,3.68,3.08,3.07,–
CAL72 BONE,3.63,3.67,3.59,1.77,3.26,3.26,2.83,3.47,–,3.09,3.55,3.18,3.32,3.24
CHLA90 AUTONOMIC GANGLIA,3.14,3.47,3.78,2.41,3.28,2.74,–,3.2,3.12,3,3.28,3.24,2.61,–
CME SYNOVIAL,4.04,4.4,4.2,2.06,2.5,4.38,2.38,4.38,–,–,4.01,4.09,3.05,2.56
DU4475 BREAST,2.83,3.18,–,2.37,2.68,–,1.46,3.12,2.9,2.98,–,–,2.23,–
HCC202 BREAST,4.17,3.88,–,–,–,1.81,–,–,–,–,–,–,4.02,2.74
HCC1395 BREAST,3.71,3.7,3.88,2.59,2.92,3.19,3.56,3.46,4.21,–,3.61,2.87,3.01,3.21
HCC1806 BREAST,3.46,3.71,3.16,1.53,2.77,2.42,1.35,3.62,3.08,–,3.26,3.59,2.87,2.84
HCC1954 BREAST,2.83,–,3.17,0.867,2.54,1.98,2.34,3.75,–,–,2.92,3.2,1.37,3.08
HCT15 LARGE INTESTINE,3.26,3.64,3.39,2.15,3.36,–,2.78,3.41,3.26,2.87,3.44,3.27,3.17,–
HU09 BONE,3.49,3.7,2.68,1.76,3.06,3.08,2.59,3.28,3.03,2.28,–,–,2.79,–
HUO3N1 BONE,–,3.47,3.13,1.45,3.19,3.17,3.13,3.36,–,2.9,3.24,–,3.14,3.21
JURKAT HAEMATOPOIETIC AND LYMPHOID TISSUE,3.54,3.49,3.55,2.79,3.28,3.18,1.92,–,2.68,3.02,3.54,3.29,2.75,–
MDAMB134 BREAST,3.44,3.48,3.71,2.13,2.86,–,2.2,3.51,–,–,2.77,3.4,2.51,3.02
MDAMB453 BREAST,3.37,3.51,3.59,3.37,3.18,3.06,2.43,3.62,–,–,3.19,3.47,3.17,3.22
MDAMB468 BREAST,3.4,3.46,3.82,2.57,2.75,2.43,2.17,3.67,3.08,–,3.12,–,3.05,2.89
MG63 BONE,3.25,–,3.52,1.88,3.36,3.25,2.01,3.4,–,2.87,3.44,3.05,2.86,3.26
NCIH441 LUNG,3.28,3.41,–,2.55,3.19,3.01,2.76,3.69,–,3.13,3.4,3.35,3.16,3.38

Test System,area under dose-response curve [1],area under dose-response curve (ABIRATERONE),area under dose-response curve (SORAFENIB),area under dose-response curve (DASATINIB),area under dose-response curve [2],area under dose-response curve [3],area under dose-response curve (MLN-4924),area under dose-response curve (TEMOZOLOMIDE),area under dose-response curve (CRIZOTINIB),area under dose-response curve (FORETINIB),area under dose-response curve (SOTRASTAURIN/AEB071),area under dose-response curve (XAV-939),area under dose-response curve [4],area under dose-response curve (OLAPARIB)
NOS1 BONE,3.62,3.87,3.01,1.42,2.83,2.84,–,3.67,3.87,2.58,3.36,–,3.13,2.8
NY BONE,3.17,3.56,3.41,2,–,3.15,2.47,3.45,–,2.96,3.48,3.27,2.97,3.27
PCI30 HEADNECK,3.14,3.58,–,2.63,3.14,1.71,2.6,3.28,–,3.16,3.42,–,3.12,3.15
RDES SOFT TISSUE,4.17,4.04,3.76,2.92,3.42,–,2.44,3.9,–,2.73,3.42,4,2.6,3.41
SAOS2 BONE,3.41,3.89,–,1.69,2.96,3.15,1.97,3.9,–,3.04,3.08,3.94,2.88,2.98
SCC003 HEADNECK,–,3.79,3.6,2.38,3.45,2.29,3.02,3.57,–,3.21,3.42,–,3.05,3.28
SCC36 HEADNECK,3.52,3.63,3.74,1.53,2.8,1.81,2.11,3.63,–,3.13,3.02,–,2.51,2.84
SCC47 HEADNECK,3.18,3.98,3.24,2.21,3.48,2.3,2.46,3.61,–,–,3.57,3.53,3.1,3.46
SCC90 HEADNECK,3.25,4.01,–,2.21,3.19,1.84,1.64,3.49,3.27,–,2.96,3.4,3.19,3.24
SG27 HEADNECK,3.25,3.22,3.79,2.16,–,3.28,2.95,3.68,3.57,3.23,3.57,–,3.15,3.27
SG28 HEADNECK,3.25,3.46,4.1,–,–,1.87,–,–,–,–,–,3.21,–,–
SG31 HEADNECK,–,3.4,3.79,1.99,3.16,2.06,2.42,3.5,–,–,–,3.04,2.66,3.18
SG32 HEADNECK,3.55,–,4.91,1.29,2.77,2.87,2.59,4.29,–,2.95,–,3.64,2.92,–
SIHA CERVIX,3.23,3.9,3.73,2.35,3.29,–,2.59,3.34,–,3.11,–,3.55,3.14,–
SJSA1 BONE,3.42,3.63,3.31,3.23,5.61,3.54,–,3.28,–,5.45,–,3.64,3.21,–
SKBR3 BREAST,3.41,3.53,3.35,2.96,2.69,1.36,2.05,3.54,–,–,3.01,–,2.88,3.09
SUM44 BREAST,3.39,3.4,3.43,3.11,3.09,3.24,–,4.14,–,3.91,–,3.52,3.1,3.02
SUM149.B1*.S BREAST,3.62,3.93,3.92,2.05,–,3.06,2.42,3.73,3.8,–,3.26,3.73,3.1,–
SUM159 BREAST,–,3.35,3.15,2.84,3.53,3.52,3.12,3.44,3.63,–,3.57,–,3.42,3.45
VP229 BREAST,3.59,3.53,3.66,1.98,3.13,1.74,2.74,3.86,–,–,–,4.36,3.2,–
YAMATO SYNOVIAL,4.14,4.72,4.27,2.5,–,4.37,–,4.22,2.3,2.34,3.66,4.04,1.83,–
ZR751 BREAST,2.89,–,3.69,2.99,3.07,2.6,–,3.24,–,–,3.67,2.68,2.77,3.57
